From article PMC4979471 (Cell Death Discovery, 2015)
Where two headings read alike, the source gives them in different places.

How the values were obtained:
Experiment in all cases: Kinase selectivity, P33-radiolabeled assay
Type in all cases: biochemical
Conditions in all cases: 10 μM ATP
NLK = molecular target: T1, NLK (Homo sapiens, UniProt Q9UBE8)
T1 construct: purchased Reaction Biology Corp
T1 sequence (Q9UBE8 1-527): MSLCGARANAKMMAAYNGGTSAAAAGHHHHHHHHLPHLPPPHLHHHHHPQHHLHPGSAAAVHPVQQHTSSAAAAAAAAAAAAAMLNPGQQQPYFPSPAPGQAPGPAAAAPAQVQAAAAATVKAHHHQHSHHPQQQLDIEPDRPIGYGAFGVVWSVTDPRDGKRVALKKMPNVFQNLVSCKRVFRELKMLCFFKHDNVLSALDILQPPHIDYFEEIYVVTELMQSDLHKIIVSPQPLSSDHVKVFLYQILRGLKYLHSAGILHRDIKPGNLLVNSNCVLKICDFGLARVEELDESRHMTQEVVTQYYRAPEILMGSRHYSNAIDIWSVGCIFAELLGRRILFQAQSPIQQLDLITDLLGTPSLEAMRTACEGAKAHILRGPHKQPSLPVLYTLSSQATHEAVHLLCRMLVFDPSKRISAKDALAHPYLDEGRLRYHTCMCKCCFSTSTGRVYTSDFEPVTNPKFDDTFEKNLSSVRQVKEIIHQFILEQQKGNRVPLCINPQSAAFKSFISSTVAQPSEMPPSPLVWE
In short: (§1)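 ATP at 10 μM; test article at 10 μM, single point, two replicates. Output is activity as % of DMSO.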

TTBK2 = molecular target: T2, TTBK2 (Homo sapiens, UniProt Q6IQ55)
T2 construct: purchased Reaction Biology Corp
In short: as §1

c-Kit = molecular target: T3, c-Kit (Homo sapiens, UniProt P10721)
T3 construct: purchased Reaction Biology Corp
In short: as §1

GSK3b = molecular target: T4, GSK3b (Homo sapiens, UniProt P49841)
T4 construct: purchased Reaction Biology Corp
In short: as §1

GRK1 = molecular target: T5, GRK1 (Homo sapiens, UniProt Q15835)
T5 construct: purchased Reaction Biology Corp
T5 sequence (Q15835 1-563): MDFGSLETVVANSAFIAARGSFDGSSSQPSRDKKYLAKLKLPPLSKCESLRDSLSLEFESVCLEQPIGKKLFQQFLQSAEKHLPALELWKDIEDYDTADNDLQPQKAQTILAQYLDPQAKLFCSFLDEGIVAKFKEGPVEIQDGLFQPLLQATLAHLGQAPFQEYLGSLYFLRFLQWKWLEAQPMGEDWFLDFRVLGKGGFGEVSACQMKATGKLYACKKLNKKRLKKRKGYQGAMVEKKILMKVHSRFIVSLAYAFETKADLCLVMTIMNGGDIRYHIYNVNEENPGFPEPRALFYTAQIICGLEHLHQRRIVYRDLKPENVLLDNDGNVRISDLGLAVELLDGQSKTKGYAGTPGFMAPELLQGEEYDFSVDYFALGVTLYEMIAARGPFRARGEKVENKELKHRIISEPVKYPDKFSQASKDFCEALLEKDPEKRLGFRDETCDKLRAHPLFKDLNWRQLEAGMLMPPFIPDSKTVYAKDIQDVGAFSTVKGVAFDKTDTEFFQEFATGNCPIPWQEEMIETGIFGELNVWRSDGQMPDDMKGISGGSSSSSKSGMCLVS
In short: as §1

IKKe/IKBKE = molecular target: T6, IKKe/IKBKE (Homo sapiens, UniProt Q14164)
T6 construct: purchased Reaction Biology Corp
T6 sequence (Q14164 1-716): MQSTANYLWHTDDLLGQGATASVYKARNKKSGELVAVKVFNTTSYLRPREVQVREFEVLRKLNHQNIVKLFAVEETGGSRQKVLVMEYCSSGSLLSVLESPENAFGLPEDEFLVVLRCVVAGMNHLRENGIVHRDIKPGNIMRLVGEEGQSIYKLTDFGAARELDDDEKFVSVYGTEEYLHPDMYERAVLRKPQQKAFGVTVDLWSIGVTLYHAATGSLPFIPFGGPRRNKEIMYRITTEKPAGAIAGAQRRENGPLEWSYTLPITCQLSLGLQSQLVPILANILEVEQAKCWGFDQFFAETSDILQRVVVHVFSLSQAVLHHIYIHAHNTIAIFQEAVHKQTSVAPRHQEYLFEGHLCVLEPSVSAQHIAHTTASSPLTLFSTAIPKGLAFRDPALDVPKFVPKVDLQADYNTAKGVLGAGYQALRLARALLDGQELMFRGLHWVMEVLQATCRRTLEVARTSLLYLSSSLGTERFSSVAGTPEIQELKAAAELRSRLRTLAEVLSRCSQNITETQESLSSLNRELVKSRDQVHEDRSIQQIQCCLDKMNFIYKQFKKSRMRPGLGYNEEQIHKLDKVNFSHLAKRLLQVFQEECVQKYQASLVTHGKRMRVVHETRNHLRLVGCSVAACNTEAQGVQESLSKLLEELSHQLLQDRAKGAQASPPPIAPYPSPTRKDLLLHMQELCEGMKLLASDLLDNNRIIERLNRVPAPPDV
In short: as §1

LIMK1 = molecular target: T7, LIMK1 (Homo sapiens, UniProt P53667)
T7 construct: purchased Reaction Biology Corp
In short: as §1

NEK7 = molecular target: T8, NEK7 (Homo sapiens, UniProt Q8TDX7)
T8 construct: purchased Reaction Biology Corp
In short: as §1

FAK/PTK2 = molecular target: T9, FAK/PTK2 (Homo sapiens, UniProt Q05397)
T9 construct: purchased Reaction Biology Corp
In short: as §1

CAMKK1 = molecular target: T10, CAMKK1 (Homo sapiens, UniProt Q8N5S9)
T10 construct: purchased Reaction Biology Corp
In short: as §1

IRAK1 = molecular target: T11, IRAK1 (Homo sapiens, UniProt P51617)
T11 construct: purchased Reaction Biology Corp
In short: as §1

ZAK/MLTK = molecular target: T12, ZAK/MLTK (Homo sapiens, UniProt Q9NYL2)
T12 construct: purchased Reaction Biology Corp
In short: as §1

[1] = read-out: % Enzyme Activity (relative to DMSO controls) AVG
[2] = read-out: % Enzyme Activity (relative to DMSO controls) Data 1
[3] = read-out: % Enzyme Activity (relative to DMSO controls) Data 2

T10 sequence (Q8N5S9 whole entry): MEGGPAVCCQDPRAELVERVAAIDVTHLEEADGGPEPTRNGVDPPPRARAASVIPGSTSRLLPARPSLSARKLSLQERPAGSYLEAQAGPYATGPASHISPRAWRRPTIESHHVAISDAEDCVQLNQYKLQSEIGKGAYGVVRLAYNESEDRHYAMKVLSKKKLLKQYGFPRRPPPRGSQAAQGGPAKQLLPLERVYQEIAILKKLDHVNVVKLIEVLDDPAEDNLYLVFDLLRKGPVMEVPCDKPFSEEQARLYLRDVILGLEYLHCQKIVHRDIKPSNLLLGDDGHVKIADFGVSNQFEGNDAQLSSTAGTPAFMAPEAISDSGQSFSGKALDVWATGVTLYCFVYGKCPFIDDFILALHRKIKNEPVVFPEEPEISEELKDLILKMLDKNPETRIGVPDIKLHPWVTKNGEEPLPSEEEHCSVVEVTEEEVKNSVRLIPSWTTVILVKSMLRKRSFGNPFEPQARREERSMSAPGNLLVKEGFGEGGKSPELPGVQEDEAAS
T7 sequence (P53667 whole entry): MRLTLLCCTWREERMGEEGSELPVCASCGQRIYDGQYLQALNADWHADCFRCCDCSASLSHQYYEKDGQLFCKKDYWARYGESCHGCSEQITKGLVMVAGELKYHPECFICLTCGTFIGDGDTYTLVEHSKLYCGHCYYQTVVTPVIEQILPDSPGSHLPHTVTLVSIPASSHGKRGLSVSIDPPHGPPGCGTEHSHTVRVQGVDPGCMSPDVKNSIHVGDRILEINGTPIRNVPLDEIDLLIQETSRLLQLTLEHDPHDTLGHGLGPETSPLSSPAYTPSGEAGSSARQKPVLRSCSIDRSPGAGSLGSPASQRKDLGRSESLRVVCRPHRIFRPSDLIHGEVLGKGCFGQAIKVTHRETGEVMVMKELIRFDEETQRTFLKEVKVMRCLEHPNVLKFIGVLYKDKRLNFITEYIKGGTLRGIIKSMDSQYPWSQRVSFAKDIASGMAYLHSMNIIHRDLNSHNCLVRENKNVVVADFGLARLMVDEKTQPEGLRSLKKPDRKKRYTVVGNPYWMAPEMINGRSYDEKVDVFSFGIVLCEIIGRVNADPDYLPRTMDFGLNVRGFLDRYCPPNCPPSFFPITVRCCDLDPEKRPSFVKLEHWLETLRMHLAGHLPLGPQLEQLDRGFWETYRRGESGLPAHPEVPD
T9 sequence (Q05397 whole entry): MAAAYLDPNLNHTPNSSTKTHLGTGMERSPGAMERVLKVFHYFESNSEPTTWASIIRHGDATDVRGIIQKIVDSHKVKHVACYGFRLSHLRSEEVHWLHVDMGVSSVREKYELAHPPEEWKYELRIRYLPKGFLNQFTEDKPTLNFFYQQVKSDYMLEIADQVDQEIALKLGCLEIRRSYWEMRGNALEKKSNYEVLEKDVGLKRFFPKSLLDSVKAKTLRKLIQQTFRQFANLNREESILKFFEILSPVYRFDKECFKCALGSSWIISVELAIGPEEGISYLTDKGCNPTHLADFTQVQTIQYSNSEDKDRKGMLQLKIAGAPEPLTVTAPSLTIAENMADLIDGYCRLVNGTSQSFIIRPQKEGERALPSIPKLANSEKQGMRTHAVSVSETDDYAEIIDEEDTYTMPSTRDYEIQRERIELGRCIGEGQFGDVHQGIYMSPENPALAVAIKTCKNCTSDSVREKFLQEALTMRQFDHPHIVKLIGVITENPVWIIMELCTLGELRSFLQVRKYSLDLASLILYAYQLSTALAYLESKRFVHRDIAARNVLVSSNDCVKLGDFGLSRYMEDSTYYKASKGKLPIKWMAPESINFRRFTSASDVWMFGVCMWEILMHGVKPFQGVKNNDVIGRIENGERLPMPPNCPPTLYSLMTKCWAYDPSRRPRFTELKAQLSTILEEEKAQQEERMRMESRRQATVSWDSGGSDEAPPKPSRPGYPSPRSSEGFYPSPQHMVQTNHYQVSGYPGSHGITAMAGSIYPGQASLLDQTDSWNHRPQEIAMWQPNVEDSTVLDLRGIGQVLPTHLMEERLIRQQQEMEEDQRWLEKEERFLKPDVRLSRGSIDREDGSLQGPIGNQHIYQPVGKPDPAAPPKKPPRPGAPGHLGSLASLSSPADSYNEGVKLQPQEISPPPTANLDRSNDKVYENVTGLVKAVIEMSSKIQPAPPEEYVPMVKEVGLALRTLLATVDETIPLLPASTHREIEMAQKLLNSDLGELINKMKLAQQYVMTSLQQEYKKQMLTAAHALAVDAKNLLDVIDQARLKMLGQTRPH
T2 sequence (Q6IQ55 whole entry): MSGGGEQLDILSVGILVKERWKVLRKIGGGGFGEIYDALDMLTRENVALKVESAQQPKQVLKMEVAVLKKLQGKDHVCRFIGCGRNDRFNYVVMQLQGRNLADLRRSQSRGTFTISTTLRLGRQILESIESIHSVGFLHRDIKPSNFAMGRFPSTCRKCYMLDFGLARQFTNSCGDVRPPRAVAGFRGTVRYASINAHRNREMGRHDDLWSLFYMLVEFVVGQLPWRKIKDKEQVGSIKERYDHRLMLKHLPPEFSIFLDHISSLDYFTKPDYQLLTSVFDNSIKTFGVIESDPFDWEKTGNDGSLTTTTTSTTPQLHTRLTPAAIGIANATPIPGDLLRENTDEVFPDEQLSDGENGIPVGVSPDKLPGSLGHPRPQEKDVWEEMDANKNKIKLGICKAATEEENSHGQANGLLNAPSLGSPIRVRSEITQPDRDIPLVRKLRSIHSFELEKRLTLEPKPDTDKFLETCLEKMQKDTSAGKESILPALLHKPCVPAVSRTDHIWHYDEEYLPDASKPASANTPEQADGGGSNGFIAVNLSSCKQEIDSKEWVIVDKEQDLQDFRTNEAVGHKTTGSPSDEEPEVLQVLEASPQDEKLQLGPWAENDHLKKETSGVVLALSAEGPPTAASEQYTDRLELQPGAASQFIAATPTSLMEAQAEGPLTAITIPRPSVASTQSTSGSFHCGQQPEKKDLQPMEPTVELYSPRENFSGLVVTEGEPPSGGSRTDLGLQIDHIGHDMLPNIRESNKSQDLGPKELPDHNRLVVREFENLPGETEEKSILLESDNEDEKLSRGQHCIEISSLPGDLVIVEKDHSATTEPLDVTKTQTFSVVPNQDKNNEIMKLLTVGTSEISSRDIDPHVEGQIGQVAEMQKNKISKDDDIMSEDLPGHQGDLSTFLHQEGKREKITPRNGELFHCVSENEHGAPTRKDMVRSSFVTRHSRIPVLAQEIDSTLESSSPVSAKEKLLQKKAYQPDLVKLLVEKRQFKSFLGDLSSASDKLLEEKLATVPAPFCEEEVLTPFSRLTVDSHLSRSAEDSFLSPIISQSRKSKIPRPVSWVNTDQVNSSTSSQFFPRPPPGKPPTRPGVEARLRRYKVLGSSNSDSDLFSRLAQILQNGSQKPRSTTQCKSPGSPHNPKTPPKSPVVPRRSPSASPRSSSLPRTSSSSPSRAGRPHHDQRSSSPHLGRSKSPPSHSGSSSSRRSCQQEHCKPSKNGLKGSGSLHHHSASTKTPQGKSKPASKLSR
T3 sequence (P10721 26-976): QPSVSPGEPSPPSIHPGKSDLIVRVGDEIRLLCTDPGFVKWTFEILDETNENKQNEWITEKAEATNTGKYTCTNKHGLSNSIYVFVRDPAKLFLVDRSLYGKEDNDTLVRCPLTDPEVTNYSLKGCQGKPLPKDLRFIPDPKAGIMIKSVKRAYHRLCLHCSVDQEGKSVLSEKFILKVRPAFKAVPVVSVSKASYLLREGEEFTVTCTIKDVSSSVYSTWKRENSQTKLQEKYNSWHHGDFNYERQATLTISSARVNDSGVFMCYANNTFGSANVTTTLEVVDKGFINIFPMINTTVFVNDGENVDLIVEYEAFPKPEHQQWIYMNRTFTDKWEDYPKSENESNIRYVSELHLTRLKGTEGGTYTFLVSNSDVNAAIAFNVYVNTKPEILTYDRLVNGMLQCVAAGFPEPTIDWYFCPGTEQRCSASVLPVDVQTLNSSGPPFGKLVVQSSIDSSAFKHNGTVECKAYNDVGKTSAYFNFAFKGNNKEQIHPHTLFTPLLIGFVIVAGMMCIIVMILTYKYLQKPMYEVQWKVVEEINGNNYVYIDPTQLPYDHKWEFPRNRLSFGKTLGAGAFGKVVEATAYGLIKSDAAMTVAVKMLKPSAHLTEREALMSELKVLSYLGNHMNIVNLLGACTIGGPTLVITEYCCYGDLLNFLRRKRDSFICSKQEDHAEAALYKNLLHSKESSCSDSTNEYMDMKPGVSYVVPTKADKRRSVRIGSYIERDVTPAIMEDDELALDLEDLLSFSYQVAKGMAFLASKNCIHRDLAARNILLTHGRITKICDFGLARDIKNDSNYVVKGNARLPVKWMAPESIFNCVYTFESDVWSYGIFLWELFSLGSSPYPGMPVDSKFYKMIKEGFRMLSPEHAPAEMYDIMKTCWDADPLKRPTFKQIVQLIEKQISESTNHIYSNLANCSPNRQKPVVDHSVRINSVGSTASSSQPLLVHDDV
T8 sequence (Q8TDX7 whole entry): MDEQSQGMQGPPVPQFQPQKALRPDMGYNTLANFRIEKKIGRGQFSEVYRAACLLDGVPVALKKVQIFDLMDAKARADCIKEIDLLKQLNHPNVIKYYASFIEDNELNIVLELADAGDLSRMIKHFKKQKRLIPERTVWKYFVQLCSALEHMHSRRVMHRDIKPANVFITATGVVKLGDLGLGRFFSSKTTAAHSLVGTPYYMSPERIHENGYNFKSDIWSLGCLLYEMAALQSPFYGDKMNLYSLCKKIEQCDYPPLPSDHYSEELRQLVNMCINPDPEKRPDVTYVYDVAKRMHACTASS

SMILES: CC(C)(C)C(=O)N1N=CC[C@H]1c1ccccc1 [GSK′963]
- remaining activity at 10 µM (NLK; [1]): 112%
- remaining activity at 10 µM (NLK; [2]): 111%
- remaining activity at 10 µM (NLK; [3]): 112%
- remaining activity at 10 µM (TTBK2; [1]): 97.8%
- remaining activity at 10 µM (TTBK2; [2]): 98.5%
- remaining activity at 10 µM (TTBK2; [3]): 97.1%
- remaining activity at 10 µM (c-Kit; [1]): 83.6%
- remaining activity at 10 µM (c-Kit; [2]): 83%
- remaining activity at 10 µM (c-Kit; [3]): 84.1%
- remaining activity at 10 µM (GSK3b; [1]): 98.7%
- remaining activity at 10 µM (GSK3b; [2]): 98.8%
- remaining activity at 10 µM (GSK3b; [3]): 98.6%
- remaining activity at 10 µM (GRK1; [1]): 108%
- remaining activity at 10 µM (GRK1; [2]): 109%
- remaining activity at 10 µM (GRK1; [3]): 106%
- remaining activity at 10 µM (IKKe/IKBKE; [1]): 70%
- remaining activity at 10 µM (IKKe/IKBKE; [2]): 68.1%
- remaining activity at 10 µM (IKKe/IKBKE; [3]): 71.8%
- remaining activity at 10 µM (LIMK1; [1]): 113%
- remaining activity at 10 µM (LIMK1; [2]): 112%
- remaining activity at 10 µM (LIMK1; [3]): 114%
- remaining activity at 10 µM (NEK7; [1]): 98.6%
- remaining activity at 10 µM (NEK7; [2]): 98.1%
- remaining activity at 10 µM (NEK7; [3]): 99%
- remaining activity at 10 µM (FAK/PTK2; [1]): 101%
- remaining activity at 10 µM (FAK/PTK2; [2]): 101%
- remaining activity at 10 µM (FAK/PTK2; [3]): 101%
- remaining activity at 10 µM (CAMKK1; [1]): 103%
- remaining activity at 10 µM (CAMKK1; [2]): 105%
- remaining activity at 10 µM (CAMKK1; [3]): 101%
- remaining activity at 10 µM (IRAK1; [1]): 115%
- remaining activity at 10 µM (IRAK1; [2]): 114%
- remaining activity at 10 µM (IRAK1; [3]): 116%
- remaining activity at 10 µM (ZAK/MLTK; [1]): 105%
- remaining activity at 10 µM (ZAK/MLTK; [2]): 106%
- remaining activity at 10 µM (ZAK/MLTK; [3]): 104%
